Assay results reported in the kinase profiling compilation of Christmann-Franck et al. (2016).

Legend:
Assay in all cases: KINOMEscan competition binding
Conditions in all cases: compound 10.0 µM
EPHA7 (human) = EPHA7 (human) (UniProt Q15375)
[1] = tested on: EGFR (human), P00533 [A750P; 747-749 del]
AKT2 (human) = AKT2 (human) (UniProt P31751)
[2] = tested on: EGFR (human), P00533 [747-751 del / S ins]
RPS6KA6 KD2 (human) = RPS6KA6 KD2 (human) (UniProt Q9UK32)
ULK1 (human) = ULK1 (human) (UniProt O75385)
STK11 (human) = STK11 (human) (UniProt Q15831)
PTK2B (human) = PTK2B (human) (UniProt Q14289)
CAMK2A (human) = CAMK2A (human) (UniProt Q9UQM7)
PIM3 (human) = PIM3 (human) (UniProt Q86V86)
[3] = tested on: EGFR (human), P00533 [L858R]
KDR (human) = KDR (human) (UniProt P35968)
MAPK9 (human) = MAPK9 (human) (UniProt P45984)
EPHA3 (human) = EPHA3 (human) (UniProt P29320)
PAK1 (human) = PAK1 (human) (UniProt Q13153)
PIK3C2B (human) = PIK3C2B (human) (UniProt O00750)
RIOK1 (human) = RIOK1 (human) (UniProt Q9BRS2)
MLTK (human) = MLTK (human) (UniProt Q9NYL2)
MLTK (human), sequence (Q9NYL2 whole entry, looked up): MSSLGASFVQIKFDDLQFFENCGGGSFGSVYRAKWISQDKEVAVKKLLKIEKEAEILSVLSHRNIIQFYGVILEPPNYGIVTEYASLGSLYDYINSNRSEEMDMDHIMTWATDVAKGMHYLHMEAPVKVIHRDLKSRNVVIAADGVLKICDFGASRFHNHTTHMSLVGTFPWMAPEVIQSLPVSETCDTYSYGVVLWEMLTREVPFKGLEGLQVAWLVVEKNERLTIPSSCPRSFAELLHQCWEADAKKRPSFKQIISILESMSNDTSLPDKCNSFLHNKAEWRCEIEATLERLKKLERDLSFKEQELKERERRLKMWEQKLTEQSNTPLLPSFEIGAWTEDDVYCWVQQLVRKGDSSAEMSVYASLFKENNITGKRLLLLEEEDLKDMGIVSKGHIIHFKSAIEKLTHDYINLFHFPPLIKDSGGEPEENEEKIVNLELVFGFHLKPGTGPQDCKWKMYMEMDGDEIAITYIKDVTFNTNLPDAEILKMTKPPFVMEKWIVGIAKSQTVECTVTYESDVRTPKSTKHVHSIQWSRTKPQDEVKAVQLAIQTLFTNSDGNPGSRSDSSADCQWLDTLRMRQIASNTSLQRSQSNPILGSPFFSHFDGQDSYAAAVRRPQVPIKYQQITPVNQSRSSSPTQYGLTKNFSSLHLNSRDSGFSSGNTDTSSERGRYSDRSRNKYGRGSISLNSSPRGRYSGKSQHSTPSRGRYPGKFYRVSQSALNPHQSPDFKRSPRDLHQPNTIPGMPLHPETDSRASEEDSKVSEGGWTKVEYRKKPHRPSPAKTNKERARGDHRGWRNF

WEE1 (human) = WEE1 (human) (UniProt P30291)
WEE1 (human), sequence (P30291 whole entry, looked up): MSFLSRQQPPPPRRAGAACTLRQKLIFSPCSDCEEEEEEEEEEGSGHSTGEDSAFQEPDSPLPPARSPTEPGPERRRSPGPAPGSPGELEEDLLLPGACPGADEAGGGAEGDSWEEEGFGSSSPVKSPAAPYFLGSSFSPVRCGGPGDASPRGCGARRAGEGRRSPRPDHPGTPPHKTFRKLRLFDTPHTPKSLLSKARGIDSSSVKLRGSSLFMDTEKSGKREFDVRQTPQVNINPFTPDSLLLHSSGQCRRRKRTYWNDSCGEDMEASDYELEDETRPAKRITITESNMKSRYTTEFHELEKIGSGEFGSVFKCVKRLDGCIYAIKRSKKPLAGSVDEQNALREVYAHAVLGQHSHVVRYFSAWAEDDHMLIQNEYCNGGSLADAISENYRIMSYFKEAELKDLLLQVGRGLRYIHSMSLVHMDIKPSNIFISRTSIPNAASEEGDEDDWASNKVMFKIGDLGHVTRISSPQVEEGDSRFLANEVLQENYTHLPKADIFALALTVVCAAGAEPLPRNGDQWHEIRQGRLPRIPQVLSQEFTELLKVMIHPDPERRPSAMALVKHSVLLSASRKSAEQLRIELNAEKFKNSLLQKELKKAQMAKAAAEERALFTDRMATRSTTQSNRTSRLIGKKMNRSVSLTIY

PRKD3 (human) = PRKD3 (human) (UniProt O94806)
FLT4 (human) = FLT4 (human) (UniProt P35916)
RAF1 (human) = RAF1 (human) (UniProt P04049)
RAF1 (human), sequence (P04049 whole entry, looked up): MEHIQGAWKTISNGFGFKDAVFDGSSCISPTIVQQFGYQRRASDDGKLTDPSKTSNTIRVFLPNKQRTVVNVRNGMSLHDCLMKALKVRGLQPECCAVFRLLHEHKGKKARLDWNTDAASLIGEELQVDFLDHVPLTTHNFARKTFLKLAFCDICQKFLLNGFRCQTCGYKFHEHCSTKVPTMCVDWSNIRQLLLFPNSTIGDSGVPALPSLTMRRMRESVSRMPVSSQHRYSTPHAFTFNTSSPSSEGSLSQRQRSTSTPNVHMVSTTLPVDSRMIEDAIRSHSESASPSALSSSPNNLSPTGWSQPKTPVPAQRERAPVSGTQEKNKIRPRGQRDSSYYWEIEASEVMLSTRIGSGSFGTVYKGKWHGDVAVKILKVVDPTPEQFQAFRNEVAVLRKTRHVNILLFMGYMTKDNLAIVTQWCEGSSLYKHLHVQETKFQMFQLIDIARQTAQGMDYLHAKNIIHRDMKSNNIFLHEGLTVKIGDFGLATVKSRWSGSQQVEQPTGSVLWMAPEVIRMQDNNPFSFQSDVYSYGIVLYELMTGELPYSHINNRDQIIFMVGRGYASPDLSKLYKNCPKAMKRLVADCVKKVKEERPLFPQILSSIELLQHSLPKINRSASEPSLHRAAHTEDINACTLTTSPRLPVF

EGFR (human) = EGFR (human) (UniProt P00533)
CAMK2B (human) = CAMK2B (human) (UniProt Q13554)
CDC42BPB (human) = CDC42BPB (human) (UniProt Q9Y5S2)
PKMYT1 (human) = PKMYT1 (human) (UniProt Q99640)
TNK1 (human) = TNK1 (human) (UniProt Q13470)
PLK3 (human) = PLK3 (human) (UniProt Q9H4B4)
PIK3CB (human) = PIK3CB (human) (UniProt P42338)
PIK3CB (human), sequence (P42338 whole entry, looked up): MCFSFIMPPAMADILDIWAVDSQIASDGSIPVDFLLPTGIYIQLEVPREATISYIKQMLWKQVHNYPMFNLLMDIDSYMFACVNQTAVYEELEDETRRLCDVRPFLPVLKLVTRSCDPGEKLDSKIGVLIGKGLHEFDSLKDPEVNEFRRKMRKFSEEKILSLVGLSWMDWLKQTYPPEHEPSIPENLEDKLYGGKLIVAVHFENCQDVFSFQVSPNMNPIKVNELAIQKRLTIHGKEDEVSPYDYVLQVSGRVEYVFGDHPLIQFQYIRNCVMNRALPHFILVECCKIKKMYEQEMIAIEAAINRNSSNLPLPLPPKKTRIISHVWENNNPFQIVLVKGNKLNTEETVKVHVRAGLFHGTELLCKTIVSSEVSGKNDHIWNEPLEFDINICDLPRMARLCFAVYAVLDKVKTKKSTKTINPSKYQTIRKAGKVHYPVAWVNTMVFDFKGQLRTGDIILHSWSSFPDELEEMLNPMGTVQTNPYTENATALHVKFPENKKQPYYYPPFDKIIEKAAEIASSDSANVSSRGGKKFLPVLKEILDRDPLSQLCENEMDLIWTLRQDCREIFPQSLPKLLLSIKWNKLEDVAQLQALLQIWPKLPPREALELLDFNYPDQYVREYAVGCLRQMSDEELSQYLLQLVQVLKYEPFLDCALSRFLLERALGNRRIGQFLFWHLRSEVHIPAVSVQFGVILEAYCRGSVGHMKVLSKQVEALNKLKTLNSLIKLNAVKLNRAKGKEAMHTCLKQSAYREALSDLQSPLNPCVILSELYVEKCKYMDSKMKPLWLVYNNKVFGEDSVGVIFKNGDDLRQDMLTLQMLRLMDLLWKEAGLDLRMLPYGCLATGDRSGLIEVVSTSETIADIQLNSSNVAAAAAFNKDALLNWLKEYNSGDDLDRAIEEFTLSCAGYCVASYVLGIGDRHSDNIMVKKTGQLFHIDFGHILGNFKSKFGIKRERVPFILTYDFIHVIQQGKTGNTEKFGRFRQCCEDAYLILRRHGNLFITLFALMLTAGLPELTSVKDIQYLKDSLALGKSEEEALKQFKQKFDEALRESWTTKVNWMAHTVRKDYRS

RPS6KA2 KD1 (human) = RPS6KA2 KD1 (human) (UniProt Q15349)
PIK3CD (human) = PIK3CD (human) (UniProt O00329)
PRKX (human) = PRKX (human) (UniProt P51817)
MAP4K4 (human) = MAP4K4 (human) (UniProt O95819)
MAP4K4 (human), sequence (O95819 whole entry, looked up): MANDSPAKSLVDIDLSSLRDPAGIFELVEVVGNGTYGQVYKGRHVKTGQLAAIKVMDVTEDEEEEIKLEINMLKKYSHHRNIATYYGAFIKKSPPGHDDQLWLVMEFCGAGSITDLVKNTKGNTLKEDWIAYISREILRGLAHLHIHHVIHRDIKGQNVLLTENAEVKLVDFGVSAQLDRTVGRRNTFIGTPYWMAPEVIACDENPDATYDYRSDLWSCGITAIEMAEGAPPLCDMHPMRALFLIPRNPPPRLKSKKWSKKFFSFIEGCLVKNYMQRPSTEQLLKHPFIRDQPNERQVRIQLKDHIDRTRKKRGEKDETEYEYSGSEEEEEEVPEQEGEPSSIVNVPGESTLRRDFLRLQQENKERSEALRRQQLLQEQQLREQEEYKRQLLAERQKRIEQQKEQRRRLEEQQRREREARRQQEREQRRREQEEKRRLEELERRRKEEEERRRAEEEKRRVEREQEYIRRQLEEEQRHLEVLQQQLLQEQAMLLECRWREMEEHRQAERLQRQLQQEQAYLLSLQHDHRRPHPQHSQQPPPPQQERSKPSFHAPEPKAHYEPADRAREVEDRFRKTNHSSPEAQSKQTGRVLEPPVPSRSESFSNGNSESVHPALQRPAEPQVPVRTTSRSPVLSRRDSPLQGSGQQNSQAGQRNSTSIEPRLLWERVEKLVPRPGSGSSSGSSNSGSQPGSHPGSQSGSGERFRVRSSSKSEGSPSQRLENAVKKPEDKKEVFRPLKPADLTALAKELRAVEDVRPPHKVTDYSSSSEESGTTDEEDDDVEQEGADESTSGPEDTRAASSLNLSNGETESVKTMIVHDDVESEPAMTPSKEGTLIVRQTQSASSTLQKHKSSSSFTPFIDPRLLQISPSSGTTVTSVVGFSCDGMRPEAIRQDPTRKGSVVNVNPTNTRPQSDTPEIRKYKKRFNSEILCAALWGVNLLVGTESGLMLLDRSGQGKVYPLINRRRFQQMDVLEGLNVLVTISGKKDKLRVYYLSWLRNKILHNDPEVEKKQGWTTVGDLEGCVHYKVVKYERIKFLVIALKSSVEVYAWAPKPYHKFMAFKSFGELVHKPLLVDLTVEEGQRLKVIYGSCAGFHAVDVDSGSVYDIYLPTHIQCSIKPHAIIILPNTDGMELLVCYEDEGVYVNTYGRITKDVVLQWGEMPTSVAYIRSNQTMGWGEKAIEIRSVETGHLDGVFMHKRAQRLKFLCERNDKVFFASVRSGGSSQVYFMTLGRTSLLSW

FRK (human) = FRK (human) (UniProt P42685)
PRKCD (human) = PRKCD (human) (UniProt Q05655)
PRKCD (human), sequence (Q05655 whole entry, looked up): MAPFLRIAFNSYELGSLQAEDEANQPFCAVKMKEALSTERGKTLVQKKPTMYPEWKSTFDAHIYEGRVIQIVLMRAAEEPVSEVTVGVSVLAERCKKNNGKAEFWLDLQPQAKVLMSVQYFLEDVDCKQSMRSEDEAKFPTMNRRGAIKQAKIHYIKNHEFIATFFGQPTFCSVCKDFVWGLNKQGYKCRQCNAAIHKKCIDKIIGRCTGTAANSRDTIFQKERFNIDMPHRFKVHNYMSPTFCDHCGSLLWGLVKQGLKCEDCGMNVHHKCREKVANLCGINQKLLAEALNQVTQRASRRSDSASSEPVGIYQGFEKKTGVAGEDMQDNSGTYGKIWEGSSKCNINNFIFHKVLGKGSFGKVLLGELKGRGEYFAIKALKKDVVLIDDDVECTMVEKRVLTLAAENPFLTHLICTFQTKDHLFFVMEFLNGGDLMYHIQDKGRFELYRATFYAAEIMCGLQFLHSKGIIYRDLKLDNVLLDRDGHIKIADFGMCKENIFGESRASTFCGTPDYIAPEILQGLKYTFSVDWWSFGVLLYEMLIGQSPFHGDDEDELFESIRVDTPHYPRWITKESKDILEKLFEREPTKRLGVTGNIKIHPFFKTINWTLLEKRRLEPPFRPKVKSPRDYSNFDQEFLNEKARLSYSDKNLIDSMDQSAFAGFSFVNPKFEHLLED

MYLK2 (human) = MYLK2 (human) (UniProt Q9H1R3)
TAOK3 (human) = TAOK3 (human) (UniProt Q9H2K8)
CDK19 (human) = CDK19 (human) (UniProt Q9BWU1)
[4] = tested on: RET (human), P07949 [V804L]
FGFR4 (human) = FGFR4 (human) (UniProt P22455)
TIE1 (human) = TIE1 (human) (UniProt P35590)
CAMK1D (human) = CAMK1D (human) (UniProt Q8IU85)

COc1cc(N2CCC(N3CCN(C)CC3)CC2)ccc1Nc1ncc(Cl)c(Nc2ccccc2S(=O)(=O)C(C)C)n1
kinase still bound, per cent of control (EPHA7 (human)): 0.4%
kinase still bound, per cent of control [1]: 0%
kinase still bound, per cent of control (AKT2 (human)): 40%
kinase still bound, per cent of control [2]: 0.6%
kinase still bound, per cent of control (RPS6KA6 KD2 (human)): 1.8%
kinase still bound, per cent of control (ULK1 (human)): 0.1%
kinase still bound, per cent of control (STK11 (human)): 40%
kinase still bound, per cent of control (PTK2B (human)): 0%
kinase still bound, per cent of control (CAMK2A (human)): 1.2%
kinase still bound, per cent of control (PIM3 (human)): 40%
kinase still bound, per cent of control [3]: 0.1%
kinase still bound, per cent of control (KDR (human)): 2.2%
kinase still bound, per cent of control (MAPK9 (human)): 12%
kinase still bound, per cent of control (EPHA3 (human)): 40%
kinase still bound, per cent of control (PAK1 (human)): 4.8%
kinase still bound, per cent of control (PIK3C2B (human)): 40%
kinase still bound, per cent of control (RIOK1 (human)): 2.6%
kinase still bound, per cent of control (MLTK (human)): 40%
kinase still bound, per cent of control (WEE1 (human)): 17%
kinase still bound, per cent of control (PRKD3 (human)): 0%
kinase still bound, per cent of control (FLT4 (human)): 0.05%
kinase still bound, per cent of control (RAF1 (human)): 40%
kinase still bound, per cent of control (EGFR (human)): 0.1%
kinase still bound, per cent of control (CAMK2B (human)): 5.8%
kinase still bound, per cent of control (CDC42BPB (human)): 25%
kinase still bound, per cent of control (PKMYT1 (human)): 40%
kinase still bound, per cent of control (TNK1 (human)): 0.45%
kinase still bound, per cent of control (PLK3 (human)): 0%
kinase still bound, per cent of control (PIK3CB (human)): 40%
kinase still bound, per cent of control (RPS6KA2 KD1 (human)): 0.05%
kinase still bound, per cent of control (PIK3CD (human)): 40%
kinase still bound, per cent of control (PRKX (human)): 28%
kinase still bound, per cent of control (MAP4K4 (human)): 5.4%
kinase still bound, per cent of control (FRK (human)): 0.2%
kinase still bound, per cent of control (PRKCD (human)): 28%
kinase still bound, per cent of control (MYLK2 (human)): 40%
kinase still bound, per cent of control (TAOK3 (human)): 0.1%
kinase still bound, per cent of control (CDK19 (human)): 40%

CCOc1cc(N2CCC(N3CCCCC3)CC2)ccc1Nc1nc(Nc2ccccc2S(=O)(=O)C(C)C)c2cn[nH]c2n1
kinase still bound, per cent of control (EPHA7 (human)): 100%
kinase still bound, per cent of control [4]: 82%
kinase still bound, per cent of control [1]: 10%
kinase still bound, per cent of control (AKT2 (human)): 100%
kinase still bound, per cent of control [2]: 19%
kinase still bound, per cent of control (RPS6KA6 KD2 (human)): 2.1%
kinase still bound, per cent of control (ULK1 (human)): 1.8%
kinase still bound, per cent of control (STK11 (human)): 100%
kinase still bound, per cent of control (PTK2B (human)): 5%
kinase still bound, per cent of control (CAMK2A (human)): 34%
kinase still bound, per cent of control (FGFR4 (human)): 100%
kinase still bound, per cent of control (PIM3 (human)): 100%
kinase still bound, per cent of control [3]: 6.6%
kinase still bound, per cent of control (KDR (human)): 100%
kinase still bound, per cent of control (MAPK9 (human)): 22%
kinase still bound, per cent of control (EPHA3 (human)): 100%
kinase still bound, per cent of control (TIE1 (human)): 76%
kinase still bound, per cent of control (PAK1 (human)): 90%
kinase still bound, per cent of control (PIK3C2B (human)): 100%
kinase still bound, per cent of control (RIOK1 (human)): 100%
kinase still bound, per cent of control (MLTK (human)): 100%
kinase still bound, per cent of control (WEE1 (human)): 100%
kinase still bound, per cent of control (PRKD3 (human)): 36%
kinase still bound, per cent of control (FLT4 (human)): 100%
kinase still bound, per cent of control (RAF1 (human)): 100%
kinase still bound, per cent of control (EGFR (human)): 4.1%
kinase still bound, per cent of control (CAMK2B (human)): 65%
kinase still bound, per cent of control (CDC42BPB (human)): 100%
kinase still bound, per cent of control (PKMYT1 (human)): 69%
kinase still bound, per cent of control (TNK1 (human)): 2.4%
kinase still bound, per cent of control (PLK3 (human)): 98%
kinase still bound, per cent of control (PIK3CB (human)): 17%
kinase still bound, per cent of control (RPS6KA2 KD1 (human)): 77%
kinase still bound, per cent of control (PIK3CD (human)): 100%
kinase still bound, per cent of control (PRKX (human)): 100%
kinase still bound, per cent of control (MAP4K4 (human)): 100%
kinase still bound, per cent of control (FRK (human)): 18%
kinase still bound, per cent of control (PRKCD (human)): 100%
kinase still bound, per cent of control (CAMK1D (human)): 1%
kinase still bound, per cent of control (MYLK2 (human)): 100%
kinase still bound, per cent of control (TAOK3 (human)): 36%
kinase still bound, per cent of control (CDK19 (human)): 100%

CCN1CCN(Cc2ccc(NC(=O)c3ccc(C)c(/C=C/c4cnc(Nc5cc(N6CCNCC6)nc(C)n5)cn4)c3)cc2C(F)(F)F)CC1
kinase still bound, per cent of control (EPHA7 (human)): 76%
kinase still bound, per cent of control [4]: 1.2%
kinase still bound, per cent of control [1]: 2.9%
kinase still bound, per cent of control (AKT2 (human)): 46%
kinase still bound, per cent of control [2]: 4.6%
kinase still bound, per cent of control (RPS6KA6 KD2 (human)): 11%
kinase still bound, per cent of control (ULK1 (human)): 83%
kinase still bound, per cent of control (STK11 (human)): 76%
kinase still bound, per cent of control (PTK2B (human)): 36%
kinase still bound, per cent of control (CAMK2A (human)): 100%
kinase still bound, per cent of control (FGFR4 (human)): 34%
kinase still bound, per cent of control (PIM3 (human)): 55%
kinase still bound, per cent of control [3]: 3.4%
kinase still bound, per cent of control (KDR (human)): 37%
kinase still bound, per cent of control (MAPK9 (human)): 0.7%
kinase still bound, per cent of control (EPHA3 (human)): 4.4%
kinase still bound, per cent of control (TIE1 (human)): 2.8%
kinase still bound, per cent of control (PAK1 (human)): 87%
kinase still bound, per cent of control (PIK3C2B (human)): 79%
kinase still bound, per cent of control (RIOK1 (human)): 100%
kinase still bound, per cent of control (MLTK (human)): 1.2%
kinase still bound, per cent of control (WEE1 (human)): 100%
kinase still bound, per cent of control (PRKD3 (human)): 71%
kinase still bound, per cent of control (FLT4 (human)): 26%
kinase still bound, per cent of control (RAF1 (human)): 43%
kinase still bound, per cent of control (EGFR (human)): 12%
kinase still bound, per cent of control (CAMK2B (human)): 92%
kinase still bound, per cent of control (CDC42BPB (human)): 100%
kinase still bound, per cent of control (PKMYT1 (human)): 100%
kinase still bound, per cent of control (TNK1 (human)): 13%
kinase still bound, per cent of control (PLK3 (human)): 83%
kinase still bound, per cent of control (PIK3CB (human)): 85%
kinase still bound, per cent of control (RPS6KA2 KD1 (human)): 69%
kinase still bound, per cent of control (PIK3CD (human)): 50%
kinase still bound, per cent of control (PRKX (human)): 100%
kinase still bound, per cent of control (MAP4K4 (human)): 0.1%
kinase still bound, per cent of control (FRK (human)): 7%
kinase still bound, per cent of control (PRKCD (human)): 100%
kinase still bound, per cent of control (CAMK1D (human)): 100%
kinase still bound, per cent of control (MYLK2 (human)): 3.8%
kinase still bound, per cent of control (TAOK3 (human)): 0%
kinase still bound, per cent of control (CDK19 (human)): 3.5%

CCN1CCN(Cc2ccc(NC(=O)c3ccc(C)c(Oc4ccnc5[nH]ccc45)c3)cc2C(F)(F)F)CC1
kinase still bound, per cent of control [4]: 0.8%
kinase still bound, per cent of control [1]: 1.5%
kinase still bound, per cent of control [2]: 1.1%
kinase still bound, per cent of control (PTK2B (human)): 2.1%
kinase still bound, per cent of control (FGFR4 (human)): 0.45%
kinase still bound, per cent of control [3]: 14%
kinase still bound, per cent of control (KDR (human)): 1.5%
kinase still bound, per cent of control (MAPK9 (human)): 0%
kinase still bound, per cent of control (EPHA3 (human)): 3.4%
kinase still bound, per cent of control (TIE1 (human)): 0.95%
kinase still bound, per cent of control (MLTK (human)): 0.35%
kinase still bound, per cent of control (FLT4 (human)): 0.2%
kinase still bound, per cent of control (RAF1 (human)): 7%
kinase still bound, per cent of control (EGFR (human)): 5.6%
kinase still bound, per cent of control (TNK1 (human)): 0.35%
kinase still bound, per cent of control (MAP4K4 (human)): 0%
kinase still bound, per cent of control (FRK (human)): 0.7%
kinase still bound, per cent of control (CAMK1D (human)): 6.2%
kinase still bound, per cent of control (MYLK2 (human)): 8.4%
kinase still bound, per cent of control (CDK19 (human)): 0.1%
